Consider one compound from publication PMC10296415, “Methyl-Thiol-Bridged Oxadiazole and Triazole Heterocycles as Inhibitors of NF-κB in Chronic Myelogenous Leukemia Cells” (Biomedicines, 2023).

Some results are limits rather than exact numbers.

One data set relates to MCF-7 cell line. In words: MTT cell viability assay, MCF-7. It is filed as cell-based. The protocol:
(§1) MCF-7 cells were purchased from Procell Life Science and Technology Co., Ltd., Wuhan, China, and cultured in MEM or Leibovitz’s L-15 medium containing 2% FBS. MCF-7 cells were maintained in a 5% CO2-humidified atmosphere at 37 °C. KCL22, LAMA84, and K562 cells were obtained from the American Type Culture Collection (Manassas, VA, USA). The KBM5 cell line was previously provided by Dr. Bharat Aggarwal (University of Texas M.D. Anderson Cancer Center, Houston, TX, USA). KBM5 cells were cultured in IMDM medium with 10% inactivated FBS and 1% penicillin-streptomycin. KCL22, LAMA84, and K562 cells were cultured in RPMI with 10% FBS and 1% penicillin-streptomycin antibiotics and maintained at 37 °C in a 5% CO2 chamber.
(§2) Cells (1 × 10^4 cells/well) were seeded on a 96-well plate and treated with 4c (0, 5, 10, 15, 30, 50 µM) for 24 h. After 24 h of treatment, 30 µL of MTT solution (2 mg/mL) for 2 h, followed by MTT lysis overnight. Cell viability was analyzed by measuring the absorbance of lysed MTT crystals using VARIOSKAN LUX (Thermo Fisher Scientific Inc., Waltham, MA, USA) at 570 nm.
(Tetrazolium dyes change colour on reduction, which living cells bring about.)

In the next data set the test system is MCF-10A cells. In words: Cytotoxicity assay, MCF-10A. It is filed as cell-based. The note with it: Homo sapiens, MCF-10A; normal mammary epithelial cells. The protocol: as §2
Data set [1] has as its system CML cells (KMB5, KCL22, LAMA84, and K562 cell lines). The data set is described as follows: MTT cell viability assay, CML cells. It is filed as cell-based, human. Conditions: 0, 5, 10, 15, 30, 50 µM, 24 h. The protocol: as §1, §2
A short description of data set [2]: MTT cell viability assay, PBMC. Conditions: normal PBMC cells, 30 and 50 µM. It is filed as cell-based. The protocol:
as §2

The next data set deals with NF-κB. The data set is described as follows: EMSA of TNFα-induced NF-κB DNA binding in CML cells. It is filed as cell-based, human. The note with it: 4c 0, 5, 15, 30 µM 2 h, then TNFα 0.5 nM 10 min; nuclear extracts. The protocol: CML cells (1 × 10^6 cells/well) were treated with indicated concentrations of 4c (0, 5, 15, 30 µM) for 2 h, then TNFα (0.5 nM) for 10 min. Nuclei extracts were prepared from whole cell pellets and incubated with NF-κB oligonucleotides (5′-[…]-3′ and 5′-[…]-3′), and Oct-1 (5′-[…]-3′ and 5′-[…] -[…]-3′) was used for loading control. The protein–DNA complex was run on a 5% gel, and the respective proteins were detected using the EMSA kit (Waltham, MA, USA).
For orientation: Mobility shift assays separate free from complexed probe on a gel.

The next data set deals with NF-κB-p65. In words: Immunocytochemistry of p65 nuclear translocation in CML cells. It is filed as cell-based, human. The note with it: 4c 30 µM 2 h, then TNFα 0.5 nM 10 min. As for the experimental part:
CML cells (1 × 10^6 cells/well) were treated with 4c (0 or 30 µM) for 2 h, followed by TNFα (0.5 nM) addition for 10 min. Further, the CML cells were fixed, permeabilized, and blocked with 5% BSA-PBS. The cells were visualized by using primary anti-p65 antibodies and secondary antibodies called Alexa Fluor® 594 donkey anti-rabbit IgG (H + L). Nuclei were stained with DAPI, and the immobilized cells were mounted with Fluorescent Mounting Medium (Golden Bridge International Labs, Mukilteo, WA, USA) and finally quantified using an Olympus FluoView FV1000 confocal microscope (Tokyo, Japan).

Data set [3] deals with p-IKKα/β, p-IκBα, phospho-p65. In words: Western blot of NF-κB complex subunits in CML cells. It is filed as cell-based, human. Conditions: 4c 30 µM pre-treatment, TNFα 0.5 nM. The protocol:
(§3) CML cells were treated with compound 4c, harvested, and the cell lysates were obtained. The required proteins of our interest were separated on SDS-PAGE and transferred into the nitrocellulose membrane. The membrane was incubated with primary antibody and HRP-conjugated secondary antibody in a sequential manner. The ECL kit (EZ-Western Lumi Femto, DOZEN) was used to detect the respective proteins.
(A western blot detects proteins with antibodies after separation by electrophoresis.)

The subject of data set [4] is COX-2 binding to p65 promoter. The data set is described as follows: ChIP assay in CML cells. The data set is classed as cell-based, human. The note with it: 4c 0, 5, 15, 30 µM. The protocol: CML cells (1 × 10^6 cells/well) were incubated with compound 4c (5, 15, 30 µM) for 24 h and immunoprecipitated with anti-NF-κB p65 antibody. RT-PCR was performed with COX-2 at 94 °C for 5 min, 94 °C for 30 s, 58 °C for 30 s, 72 °C for 30 s with 30 cycles, and extension at 72 for 7 min. All the experiments were performed 3 times as individual repeats.

Data set [5] has as its system survivin, MMP-9, Bcl-2/xl, VEGF, COX-2, PARP. The data set is described as follows: Western blot of NF-κB regulated proteins and PARP in CML cells. It is filed as cell-based, human. The note with it: 4c 30 µM pretreatment, TNFα 0.5 nM for 0, 6, 12, 24 h. The protocol: as §3

Usually IC50 stands for the concentration needed to halve the response being measured. Usually viability stands for the share of living cells, or the viability signal relative to a control. Higher therefore signals better survival. Consider `COc1ccc(Cc2nnc(SCc3cn(-c4ccc(Cl)c(Cl)c4)nn3)o2)cc1` [Compound 4c, 2-(((1-(3,4-Dichlorophenyl)-1H-1,2,3-triazol-4-yl)methyl)thio)-5-(4-methoxybenzyl)-1,3,4-oxadiazole], for which the half-maximal inhibitory concentration (IC50) is 9 to 16 µM with MCF-7 cell line (Homo sapiens, MCF7, viability of MCF-7 cell line); 7.4 ± 0.87 µM with MCF-7 cell line (viability of MCF-7 cell line); more than 100 µM in the data set on MCF-10A cells. Further, the “cell viability in CML cells” value in data set [1] was “concentration-dependent loss of cell viability”. This compound also gave a viability at 24 h in [2] of more than 80%. Besides, the “binding of NF-κB to DNA induced by TNFα” value in the data set with NF-κB is recorded as “substantially inhibited”. The “translocation of NF-κB-p65 to nuclei” value in the data set with NF-κB-p65 is given as “suppressed the translocation of NF-κB-p65 to nuclei”. The “p-IKKα/β and p-IκBα induced by TNFα” value in data set [3] (cytoplasmic extracts) is listed as “inhibited”. The phospho-p65 in nuclei entry in data set [3] (nuclear extracts) is given as “suppressed phospho-p65 in nuclei”. The “p65 binding to the COX-2 promoter” value in data set [4] is “markedly inhibited COX-2 binding to the p65 promoter”. Moreover, the “cleavage of PARP” value in [5] was “enhanced the cleavage of PARP”. Moreover, the “expression of anti-apoptotic proteins (survivin, MMP-9, Bcl-2/xl, VEGF, COX-2)” value in [5] is given as “suppressed the expression of these proteins”.
